Test results reported in patent US7943580B2, “Polypeptide and the use thereof” (National Cerebral and Cardiovascular Center, priority 2004, dated 2011).

Key:
pituitary anterior cells = assay: Prolactin release from primary culture of anterior pituitary cells; type: cell-based; settings: primary culture of rat anterior pituitary cells, supernatant recovered 30 minutes after addition
Experimental: (§1) Changes in prolactin blood level by central administration were monitored. Central administration to conscious rats was performed in the same way as in EXAMPLE 9. The animal received rat NUNP-36 or rat NSNP-37 prepared by the procedure of EXAMPLE 14 and dissolved in physiological saline and then decapitated, followed by blood collection in 20 minutes or blood collection via the tail vein at each time after peptide administration. Prolactin was measured using RIA kit (Amersham). A direct effect on pituitary anterior cells was also examined. The pituitary anterior cells were prepared from Wistar rats (5 week old, male), incubated in a 96-well plate for 2 days and used for the experiment. After rat NUNP-36 or rat NSNP-37 was added, the culture supernatant was recovered 30 minutes after and the prolactin level was measured.

conscious rats [1] = assay: Blood hormone levels after central administration of NUNP and NSNP; type: in vivo, rat; settings: 20 minutes after central administration of 1 nmol
conscious rats [2] = assay: as above; type: in vivo, rat; settings: for prolactin level in blood: 20 minutes after central administration of 1 nmol
Experimental: (§2) A catheter was placed in the lateral ventricle of Wistar rats (male, 8 weeks old) and housed under controlled conditions with free access to their diet, while they were accustomed to experimental procedures (22°, light-on from 7:00 to 19:00). […] (1) For feed intake during the dark phase, NMS was administered at 18:00 and their feed intake was measured during 19:00 to 7:00. In addition, (2) NMS was administered to 14 hour-fasted rats at 9:00 and immediately thereafter the feed intake was measured for 2 hours.
as §1

c-Fos protein = assay: Immunostaining for c-Fos protein in the suprachiasmatic nucleus after intracerebroventricular administration; type: in vivo, rat; settings: intracerebroventricular 1 nmol at CT6, 90 minutes after administration, compared to physiological saline
Experimental: Male Wistar rats (300-350 g) were used for the experiment of circadian rhythm phase shift. Intracerebroventricular administration was performed in accordance with the method of Ida et al. (Ida, T., et al., (1999) Brain Res., 821, 526, 1999). The spontaneous locomotor activity was measured by the method of Nakahara et al. (Nakahara, K., et al., Biochem. Biophys. Res. Commun., 318, 156, 2004). The phase shift of spontaneous locomotor activity rhythm was calculated based on the distance between the lines drawn by plotting a delay in time of daily onset of spontaneous locomotor activity for at least 10 days before and after the intracerebroventricular administration of NMS or physiological saline. […] Phase-response data were evaluated using one-way ANOVA followed by Scheffe's multiple comparisons test. […] The spontaneous locomotor activity was recorded for 2 weeks before and after the administration, respectively, according to the method of Nakahara et al. (Nakahara, K., et al., Biochem. Biophys. Res. Commun., 318, 156, 2004). At the conclusion of the experiment, the exact location of the cannula was determined histologically as follows. […] The sections were analyzed by comparing to the corresponding rat brain atlas of Paxinos and Watson (Paxinos, G. and Watson, C., The rat brain in stereotaxic coordinates, Academic Press, New York, USA, 1998). […]

Wistar rats [3] = assay: Phase shift of circadian rhythms in spontaneous locomotor activity; type: in vivo, rat
Experimental: Male Wistar rats (300-350 g) were used for the experiment of circadian rhythm phase shift. Intracerebroventricular administration was performed in accordance with the method of Ida et al. (Ida, T., et al., (1999) Brain Res., 821, 526, 1999). The spontaneous locomotor activity was measured by the method of Nakahara et al. (Nakahara, K., et al., Biochem. Biophys. Res. Commun., 318, 156, 2004). The phase shift of spontaneous locomotor activity rhythm was calculated based on the distance between the lines drawn by plotting a delay in time of daily onset of spontaneous locomotor activity for at least 10 days before and after the intracerebroventricular administration of NMS or physiological saline. The onset time of spontaneous locomotor activity was designated as CT12 (circadian time 12). Phase-response data were evaluated using one-way ANOVA followed by Scheffe's multiple comparisons test. […] At 90 minutes after the administration, rats were perfused with 2% paraformaldehyde. Immunostaining for c-Fos protein was performed according to the method of Date et al. (Date, Y, et al., Proc. Natl. Acad. Sci. USA, 96, 748, 1999). The intra-suprachiasmatic nucleus perfusion was performed by an improvement of the Piggins et al. method (Piggins, H. D., et al., J. Neurosci., 15, 5612, 1995). Rats were allowed to free run under constant dark conditions for 2 weeks. Each rat was then implanted with a 26-gauge stainless steel guide cannula in the stereotaxic coordinates by Paxinos and Watson (Paxinos, G. and Watson, C., The rat brain in stereotaxic coordinates, Academic Press, New York, USA, 1998) to reach the suprachiasmatic nucleus. […] The spontaneous locomotor activity was recorded for 2 weeks before and after the administration, respectively, according to the method of Nakahara et al. (Nakahara, K., et al., Biochem. Biophys. Res. Commun., 318, 156, 2004). At the conclusion of the experiment, the exact location of the cannula was determined histologically as follows. Rats received 1 μl of India ink to mark the administered site and were then decapitated. The brain was immediately frozen and cut on a cryostat into 20 μm coronal sections, followed by staining with Crystal Violet. The sections were analyzed by comparing to the corresponding rat brain atlas of Paxinos and Watson (Paxinos, G. and Watson, C., The rat brain in stereotaxic coordinates, Academic Press, New York, USA, 1998). When data obtained for the location was more than 200 μm away from the external border of the suprachiasmatic nucleus, the data was excluded from further analysis.

Sprague-Dawley rats = assay: Hypertensive activity by transvenous administration to rat; settings: dose of 3 nmol/kg, pentobarbital-anesthetized rats
chick rectum = assay: Contractile activity on the chick rectum; settings: dose of 10 pmol, 37° C., Krebs-Henseleit solution
Experimental: Contraction of the rectum was then measured.

Wistar rats [4] = assay: Effect on feed intake by central administration; type: in vivo, rat
Experimental: as §2

conscious rats [5] = assay: Prolactin release suppressing activity by central administration of NMS; type: in vivo, rat; settings: 20 minutes after central administration of 1 nmol
Experimental: as §2
Changes in prolactin blood level by central administration of NMS were monitored. Central administration to conscious rats was performed as in EXAMPLE 9. Blood was collected by decapitation 20 minutes after peptide administration. Prolactin was assayed using RIA kit (Amersham).

rat NUNP-36: rat neuromedin U N-terminal peptide-36, SEQ ID NO: 40 (FLFHYSKTQKLGNSNVVSSVVHPLLQLVPQLHERRM; listed as Rattus norvegicus)
prolactin in the culture supernatant (pituitary anterior cells): no change was noted | follicle-stimulating hormone level in blood (conscious rats [1]): 12.26 ± 0.95 ng/mL | other blood hormone (growth hormone, luteinizing hormone, corticosterone) levels (conscious rats [1]): any significant change was not noted | thyroid-stimulating hormone level in blood (conscious rats [1]): 4.92 ± 0.22 ng/mL | prolactin level in blood (conscious rats [2]): 68.74 ± 10.4 ng/mL | prolactin level in blood (conscious rats [2]; listed as Rat NUNP-36): 27.34 ± 5.63 ng/mL | time at which the prolactin level reached the peak (conscious rats [2]; central administration at 1 nmol and 0.2 nmol): 20 min | prolactin level in blood, dose and time dependency (conscious rats [2]; since 10 minutes after central administration at 1 nmol and 0.2 nmol): significant increase of prolactin level

LPRLLHTDSRMATIDFPKKDPTTSLGRPFFLFRPRN [rat NMS]
expression of c-Fos protein in the suprachiasmatic nucleus (c-Fos protein): increased | phase of spontaneous locomotor activity (Wistar rats [3]; intracerebroventricular 1 nmol at CT3-9, constant dark conditions): advances in the phase | phase of spontaneous locomotor activity (Wistar rats [3]; intracerebroventricular 1 nmol at CT22-24, constant dark conditions): delays in the phase | phase of spontaneous locomotor activity (Wistar rats [3]; intracerebroventricular 1 nmol at any other time, constant dark conditions): No phase shift was observed | length of circadian rhythm (Wistar rats [3]; intracerebroventricular administration, any time): not affected | phase of circadian rhythms of spontaneous locomotor activity (Wistar rats [3]; microinjected directly into the suprachiasmatic nucleus at CT6): phase advances | phase of circadian rhythms of spontaneous locomotor activity (Wistar rats [3]; microinjected directly into the suprachiasmatic nucleus at CT23): delays | blood pressure of rats (Sprague-Dawley rats): significantly increased the blood pressure | contraction of the chick rectum (chick rectum): significant contractile activity | 2 hour feed intake of fasted rats (Wistar rats [4]; 0.5 nmol into the lateral ventricle, 14 hour-fasted rats): significantly suppressed the feed intake | feed intake during the dark phase (Wistar rats [4]; administered into the lateral ventricle at 18:00, feed intake measured 19:00 to 7:00): significantly suppressed the feed intake dose-dependently | dose at which the feed intake suppressing effect showed the maximum (Wistar rats [4]; dark phase feed intake, lateral ventricle administration): 1 nmol | blood prolactin level (conscious rats [5]): 3.6 ± 1.2 ng/mL

rat NSNP-37: rat neuromedin S N-terminal peptide-37, SEQ ID NO: 10 (FLFHYSRAWKSTHPVNSEFAPVHPLMRLAAKLPSRRM; listed as Rattus norvegicus)
follicle-stimulating hormone level in blood (conscious rats [1]): 10.64 ± 0.72 ng/mL | other blood hormone (growth hormone, luteinizing hormone, corticosterone) levels (conscious rats [1]): any significant change was not noted | thyroid-stimulating hormone level in blood (conscious rats [1]): 5.37 ± 0.51 ng/mL
